Where two headings read alike, the source gives them in different places.
Target: T1, Full-length (FL)-PRMT5-MEP50 enzyme complex (Homo sapiens, UniProt O14744)
T1 construct: Full-length (FL)-PRMT5-MEP50 enzyme complex (recombinant proteins from baculovirus-transfected Sf21 cells: FL-PRMT5; MW=73837 kDa and FL-MEP50; MW=38614); made in house; host or cells: baculovirus-transfected Sf21 insect cells
Assay: PRMT5-MEP50 Enzyme Methylation Assay
Assay type: biochemical
Conditions: 1.0 nM PRMT5-MEP50, 75 nM biotinylated peptide, 15 μM SAM
Experimental: PRMT5-MEP50 biochemical assay is a direct measurement of the methylation activity of the enzyme complex on a short peptide substrate derived from the N-terminus of H4 histone. Methylation experiment is performed with recombinant PRMT5-MEP50 protein complex. The assessment of inhibitory effect of small molecules is measured by the effectiveness of the compounds to inhibit this reaction (EC50).
In this assay, the potency (EC50) of each compound was determined from a twenty-point (1:2 serial dilution; top compound concentration of 100000 nM) titration curve using the following outlined procedure. To each well of a white ProxiPlus 384 well-plate, 100 nL of compound (1% DMSO in final assay volume of 10 μL) was dispensed, followed by the addition of 8 μL of 1× assay buffer (50 mM Bicine pH 8.0, 1 mM DTT, 0.004% Tween20, 0.01% BSA) containing 1.25 nM of Full-length (FL)-PRMT5-MEP50 enzyme complex (recombinant proteins from baculovirus-transfected Sf21 cells: FL-PRMT5; MW=[…] and FL-MEP50; MW=38614) and 1 μL of 150 μM S-(5′-Adenosyl)-L-Methionine Chloride (SAM). Plates were sealed and placed in a 37° C. humidified chamber for a 60 minutes pre-incubation with compound. Subsequently, each reaction was initiated by the addition of 1 μL 1× assay buffer containing 750 nM biotinylated H4R3(Mel) peptide. The final reaction in each well of 10 μL consists of 1.0 nM PRMT5-MEP50, 75 nM biotinylated-peptide, and 15 μM SAM. Methylation reactions proceeded for 150 minutes in a sealed plate at 37° C. Reactions were immediately quenched by the addition of 1 μL of 5% formic acid. Plates were then frozen and shipped to SAMDI™ Tech Inc. to determine the percent conversion from H4R3(Mel) to H4R3(Me2). Dose-response curves were generated by plotting percent effect (% product conversion; Y-axis) vs. Log 10 compound concentrations (X-axis). EC50 values were determined by non-linear regression according to models for either sigmoidal (4 parameters) or biphasic (7 parameters) dose-response curves.

[1] = one EC50: 4 parameters single site sigmoidal model, EC50 1: first value of 7 parameters biphasic model, read-out: Enzyme Methylation Assay (EC50 or EC50 1)
[2] = second EC50 of 7 parameters biphasic model, read-out: Enzyme Methylation Assay (EC50 2)

T1 sequence (O14744 whole entry): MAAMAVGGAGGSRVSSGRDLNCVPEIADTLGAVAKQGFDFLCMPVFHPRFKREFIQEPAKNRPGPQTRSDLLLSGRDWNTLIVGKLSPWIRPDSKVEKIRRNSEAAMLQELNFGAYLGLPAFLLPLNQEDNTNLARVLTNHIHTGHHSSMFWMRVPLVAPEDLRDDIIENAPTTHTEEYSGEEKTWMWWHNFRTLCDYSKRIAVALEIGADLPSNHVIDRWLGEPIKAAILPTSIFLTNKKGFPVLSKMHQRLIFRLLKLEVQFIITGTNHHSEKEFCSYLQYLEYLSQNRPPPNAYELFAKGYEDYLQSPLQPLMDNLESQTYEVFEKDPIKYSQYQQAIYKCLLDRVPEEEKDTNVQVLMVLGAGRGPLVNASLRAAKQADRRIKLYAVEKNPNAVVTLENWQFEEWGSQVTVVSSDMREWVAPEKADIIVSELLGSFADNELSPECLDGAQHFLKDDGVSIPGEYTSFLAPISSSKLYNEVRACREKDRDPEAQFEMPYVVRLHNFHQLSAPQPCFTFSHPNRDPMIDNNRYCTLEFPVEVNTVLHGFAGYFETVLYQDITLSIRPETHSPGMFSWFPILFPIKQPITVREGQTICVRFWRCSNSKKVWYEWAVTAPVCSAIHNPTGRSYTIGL
T1 sequence (Q9BQA1 whole entry partner): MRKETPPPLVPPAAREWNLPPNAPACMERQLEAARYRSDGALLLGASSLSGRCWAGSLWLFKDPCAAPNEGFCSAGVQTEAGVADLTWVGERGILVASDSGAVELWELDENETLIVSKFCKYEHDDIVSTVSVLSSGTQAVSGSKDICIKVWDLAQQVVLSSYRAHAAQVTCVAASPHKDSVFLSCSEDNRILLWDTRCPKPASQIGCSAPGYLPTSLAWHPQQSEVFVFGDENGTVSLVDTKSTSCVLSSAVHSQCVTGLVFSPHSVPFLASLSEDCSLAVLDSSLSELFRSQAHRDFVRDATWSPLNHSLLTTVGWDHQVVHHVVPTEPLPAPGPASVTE

`Nc1nc2cc(C[C@@H]3CC[C@@]4(O)[C@@H]3O[C@@H](n3cc(F)c5c(N)ncnc53)[C@@H]4O)cc(F)c2cc1F` [Example 24, (2R,3R,3aS,6S,6aR)-6-((2-amino-3,5-difluoroquinolin-7-yl)methyl)-2-(4-amino-5-fluoro-7H-pyrrolo[2,3-d]pyrimidin-7-yl)hexahydro-3aH-cyclopenta[b]furan-3,3a-diol] gave an EC50 [1] of 0.4 nM.

`COc1ncnc2c1ccn2[C@@H]1O[C@](C)(COc2ccc3cc(Br)c(N)nc3c2)[C@@H](O)[C@H]1O` [Example 12, (2R,3S,4R,5R)-2-(((2-amino-3-bromoquinolin-7-yl)oxy)methyl)-5-(4-methoxy-7H-pyrrolo[2,3-d]pyrimidin-7-yl)-2-methyltetrahydrofuran-3,4-diol] was tested, and the EC50 [1] was 33 nM and the EC50 [2] was 20900 nM.

Molecule `Nc1nc2cc(O[C@H]3CC[C@@]4(O)[C@@H]3O[C@@H](n3ccc5c(N)ncnc53)[C@@H]4O)ccc2cc1C(F)F` [Example 128, (2R,3R,3aS,6S,6aR)-6-((2-amino-3-(difluoromethyl)quinolin-7-yl)oxy)-2-(4-amino-7H-pyrrolo[2,3-d]pyrimidin-7-yl)hexahydro-3aH-cyclopenta[b]furan-3,3a-diol] has an EC50 [1] of 0.7 nM.

With `Nc1nc2cc(C[C@@H]3OC[C@@]4(O)[C@@H]3O[C@@H](n3ccc5c(N)ncnc53)[C@@H]4O)ccc2cc1Br` [Example 136, (2R,3R,3aS,6S,6aR)-6-((2-amino-3-bromoquinolin-7-yl)methyl)-2-(4-amino-7H-pyrrolo[2,3-d]pyrimidin-7-yl)tetrahydrofuro[3,4-b]furan-3,3a(4H)-diol] the EC50 [1] was 0.5 nM.

Molecule `Cc1ncnc2c1ccn2[C@@H]1O[C@@H]2[C@@H](Oc3ccc4cc(Cl)c(N)nc4c3)CC[C@]2(O)[C@H]1O` [Example 112, (2R,3R,3aS,6S,6aR)-6-((2-amino-3-chloroquinolin-7-yl)oxy)-2-(4-methyl-7H-pyrrolo[2,3-d]pyrimidin-7-yl)hexahydro-2H-cyclopenta[b]furan-3,3a-diol] has an EC50 [1] of 0.6 nM.

Work on `Nc1nc2cc(C[C@@H]3CC[C@@]4(O)[C@@H]3O[C@@H](n3ccc5c(N)ncnc53)[C@@H]4O)ccc2cc1Br` [Example 9, (2R,3R,3aS,6S,6aR)-6-((2-amino-3-bromoquinolin-7-yl)methyl)-2-(4-amino-7H-pyrrolo[2,3-d]pyrimidin-7-yl)hexahydro-2H-cyclopenta[b]furan-3,3a-diol] yielded an EC50 [1] of 0.3 nM.

`Cc1cc2ccc(OC[C@H]3C[C@@H](n4ccc5c(C)ncnc54)[C@H](O)[C@]3(C)O)cc2nc1N` [Example 106, (1R,2S,3R,5R)-5-(((2-amino-3-methylquinolin-7-yl)oxy)methyl)-1-methyl-3-(4-methyl-7H-pyrrolo[2,3-d]pyrimidin-7-yl)cyclopentane-1,2-diol] showed an EC50 [1] of 0.3 nM.

`CNc1ncnc2c1ccn2[C@@H]1O[C@@H]2[C@H](Cc3ccc4cc(F)c(N)nc4c3)CC[C@]2(O)[C@H]1O` [Example 95, (2R,3R,3aS,6S,6aR)-6-((2-amino-3-fluoroquinolin-7-yl)methyl)-2-(4-(methylamino)-7H-pyrrolo[2,3-d]pyrimidin-7-yl)hexahydro-3aH-cyclopenta[b]furan-3,3a-diol] was tested, and the EC50 [1] was 2.8 nM.

`Cc1cn([C@@H]2O[C@@H]3[C@@H](Oc4ccc5cc(Br)c(N)nc5c4)CC[C@]3(O)[C@H]2O)c2ncnc(N)c12` [Example 60, (2R,3R,3aS,6S,6aR)-6-((2-amino-3-bromoquinolin-7-yl)oxy)-2-(4-amino-5-methyl-7H-pyrrolo[2,3-d]pyrimidin-7-yl)hexahydro-3aH-cyclopenta[b]furan-3,3a-diol] showed an EC50 [1] of 0.4 nM.

Work on `Cc1nc(N)c2ccn([C@@H]3C[C@@H]4[C@H](Cc5ccc6cc(F)c(N)nc6c5)CC[C@]4(O)[C@H]3O)c2n1` [Example 32, (1S,2R,3aR,4S,6aR)-2-(4-amino-2-methyl-7H-pyrrolo[2,3-d]pyrimidin-7-yl)-4-((2-amino-3-fluoroquinolin-7-yl)methyl)hexahydropentalene-1,6a(1H)-diol 2,2,2-trifluoroacetate] yielded an EC50 [1] of 0.4 nM.

`Nc1nc2cc(O[C@H]3CC[C@@]4(O)[C@@H]3O[C@@H](n3cc(-c5ccccc5)c5c(N)ncnc53)[C@@H]4O)ccc2cc1Br` [Example 49, (2R,3R,3aS,6S,6aR)-6-[(2-amino-3-bromoquinolin-7-yl)oxy]-2-(4-amino-5-phenyl-7H-pyrrolo[2,3-d]pyrimidin-7-yl)hexahydro-3aH-cyclopenta[b]furan-3,3a-diol] was tested, and the EC50 [1] was 0.5 nM.

For `C[C@]1(CCc2ccc3cc(Br)c(N)nc3c2)O[C@@H](n2ccc3c(N)ncnc32)[C@H](O)[C@]1(C)O` [Example 4, (2R,3S,4R,5R)-2-(2-(2-amino-3-bromoquinolin-7-yl)ethyl)-5-(4-amino-7H-pyrrolo[2,3-d]pyrimidin-7-yl)-2,3-dimethyltetrahydrofuran-3,4-diol], the EC50 [1] was 2.4 nM and the EC50 [2] was 288 nM.

Molecule `Nc1nc2cc(O[C@H]3CC[C@@]4(O)[C@@H]3O[C@@H](n3ccc5c(CO)ncnc53)[C@@H]4O)ccc2cc1Br` [Example 77, (2R,3R,3aS,6S,6aR)-6-[(2-amino-3-bromoquinolin-7-yl)oxy]-2-[4-(hydroxymethyl)-7H-pyrrolo[2,3-d]pyrimidin-7-yl]hexahydro-3aH-cyclopenta[b]furan-3,3a-diol] has an EC50 [1] of 2 nM and an EC50 [2] of 243 nM.

`CNc1ncnc2c1ccn2[C@@H]1O[C@@H]2[C@H](Cc3ccc4cc(Br)c(N)nc4c3)CC[C@]2(O)[C@H]1O` [Example 92, (2R,3R,3aS,6S,6aR)-6-((2-amino-3-bromoquinolin-7-yl)methyl)-2-(4-(methylamino)-7H-pyrrolo[2,3-d]pyrimidin-7-yl)hexahydro-3aH-cyclopenta[b]furan-3,3a-diol] gave an EC50 [1] of 0.5 nM.

`Nc1ncnc2c1ccn2[C@@H]1O[C@@H]2[C@@H](Oc3ccc4ccc(NCC(F)(F)F)nc4c3)CC[C@]2(O)[C@H]1O` [Example 57, (2R,3R,3aS,6S,6aR)-2-(4-amino-7H-pyrrolo[2,3-d]pyrimidin-7-yl)-6-((2-((2,2,2-trifluoroethyl)amino)quinolin-7-yl)oxy)hexahydro-3aH-cyclopenta[b]furan-3,3a-diol] showed an EC50 [1] of 0.7 nM and an EC50 [2] of 143 nM.

`Nc1nc2cc(CC3OC[C@@]4(O)C3C[C@@H](n3ccc5c(N)ncnc53)[C@@H]4O)ccc2cc1Br` (stereo partly drawn) [Example 132, (3aS,4S,5R)-1-((2-amino-3-bromoquinolin-7-yl)methyl)-5-(4-amino-7H-pyrrolo[2,3-d]pyrimidin-7-yl)tetrahydro-1H-cyclopenta[c]furan-3a,4(3H)-diol] gave an EC50 [1] of 3.9 nM and an EC50 [2] of 3310 nM.

`Cc1ncnc2c1ccn2[C@@H]1C[C@@H]2[C@H](Cc3ccc4cc(Cl)c(N)nc4c3)CC[C@]2(O)[C@H]1O` [Example 17, (1S,2R,3aR,4S,6aR)-4-((2-amino-3-chloroquinolin-7-yl)methyl)-2-(4-methyl-7H-pyrrolo[2,3-d]pyrimidin-7-yl)hexahydropentalene-1,6a(1H)-diol] was tested, and the EC50 [1] was 0.3 nM.

`C[C@]1(COc2ccc3cc(Br)c(N)nc3c2)O[C@@H](n2ccc3c(N)ncnc32)[C@H](O)[C@@H]1O` [Example 13, (2R,3S,4R,5R)-2-(((2-amino-3-bromoquinolin-7-yl)oxy)methyl)-5-(4-amino-7H-pyrrolo[2,3-d]pyrimidin-7-yl)-2-methyltetrahydrofuran-3,4-diol] gave an EC50 [1] of 0.5 nM and an EC50 [2] of 89 nM.

With `Nc1nc2cc(C[C@@H]3CC[C@@]4(O)[C@@H]3O[C@@H](n3cc(C(F)F)c5c(N)ncnc53)[C@@H]4O)ccc2cc1Br` [Example 43, (2R,3R,3aS,6S,6aR)-6-[(2-amino-3-bromoquinolin-7-yl)methyl]-2-[4-amino-5-(difluoromethyl)-7H-pyrrolo[2,3-d]pyrimidin-7-yl]hexahydro-3aH-cyclopenta[b]furan-3,3a-diol] the EC50 [1] was 0.4 nM.

`Cc1ncnc2c1ccn2[C@@H]1O[C@@H]2[C@H](Cc3ccc4cc(C(F)F)c(N)nc4c3)CC[C@]2(O)[C@H]1O` [Example 23, (2R,3R,3aS,6S,6aR)-6-((2-amino-3-(difluoromethyl)quinolin-7-yl)methyl)-2-(4-methyl-7H-pyrrolo[2,3-d]pyrimidin-7-yl)hexahydro-3aH-cyclopenta[b]furan-3,3a-diol] showed an EC50 [1] of 0.4 nM.

`C#C[C@@]1(O)[C@@H](COc2ccc3cc(Br)c(N)nc3c2)O[C@@H](n2ccc3c(N)ncnc32)[C@@H]1O` [Example 3, (2R,3S,4R,5R)-2-(((2-amino-3-bromoquinolin-7-yl)oxy)methyl)-5-(4-amino-7H-pyrrolo[2,3-d]pyrimidin-7-yl)-3-ethynyltetrahydrofuran-3,4-diol] was tested, and the EC50 [1] was 0.8 nM and the EC50 [2] was 193 nM.
